The results in this text go back to patent publication US9822118B2, “Bicyclic heteroaryl urea, thiourea, guanidine and cyanoguanidine compounds as TrkA kinase inhibitors” (Array BioPharma Inc., priority 2012, dated 2017).

Bounds are passed on as bounds.

The target in the assay is T1, recombinant human TrkA (Homo sapiens, UniProt P04629).
T1 construct: 6HIS tagged cytoplasmic domain from Invitrogen, Catalog No. PV3144; purchased Invitrogen PV3144
T1 sequence (P04629 440-796 limits assumed): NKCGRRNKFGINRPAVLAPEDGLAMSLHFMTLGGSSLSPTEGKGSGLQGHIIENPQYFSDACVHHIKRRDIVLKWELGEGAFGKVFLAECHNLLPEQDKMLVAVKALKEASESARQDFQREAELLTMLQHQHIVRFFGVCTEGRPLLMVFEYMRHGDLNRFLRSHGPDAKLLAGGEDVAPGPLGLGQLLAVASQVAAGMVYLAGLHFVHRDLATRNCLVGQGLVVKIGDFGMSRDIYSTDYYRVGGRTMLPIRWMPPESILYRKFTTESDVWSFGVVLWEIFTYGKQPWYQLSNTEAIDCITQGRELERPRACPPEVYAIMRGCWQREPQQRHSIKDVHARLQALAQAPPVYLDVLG
Nature of the assay: TrkA LanthaScreen Eu Kinase Binding Assay. As to conditions: averaged IC50; TR-FRET binding assay, 60 min at 22° C.; read-out: TrkA Enzyme IC50. As for the experimental part: TrkA binding activity was determined in a TrkA LanthaScreen™ Eu Kinase Binding Assay. 5 nM His-tagged recombinant human TrkA (6HIS tagged cytoplasmic domain from Invitrogen, Catalog No. PV3144) was incubated with 4 nM Alexa-Fluor® Tracer 236 (Invitrogen Cat. No. PV5592), 2 nM biotinylated anti-His (Invitrogen Cat. No. PV6090), and 2 nM europium-labeled Streptavidin (Invitrogen Cat. No. PV5899), in buffer (25 mM MOPS, pH 7.5, 5 mM MgCl2, 0.005% Triton X-100). Three fold serial dilutions of compounds of the invention in DMSO were added to a final percentage of 2% DMSO. After 60-minute incubation at 22° C., the reaction was measured using the EnVision multimode plate reader (PerkinElmer) via TR-FRET dual wavelength detection at […]. The percent of control was calculated using a ratiometric emission factor. The IC50 values were determined by fitting a four parameter model to the percent of control data.
Table A provides averaged IC50 values for compounds of the invention when tested in the assay of Example A, where A represents an averaged IC50 value <100 nM; and B represents an averaged IC50 value from 100 to 1,000 nM.
Usually IC50 stands for the concentration that inhibits the measured activity by half. Take `Cc1c(-c2cnn(C)c2)nn(-c2ccccc2)c1NC(=O)Nc1c(-c2ccccc2)nc2c(C(F)(F)F)cccn12` [Example 30, 1-(1′,4-dimethyl-1-phenyl-1H,1′H-[3,4′-bipyrazol]-5-yl)-3-(2-phenyl-8-(trifluoromethyl)imidazo[1,2-a]pyridin-3-yl)urea]: the IC50 is under 100 nM.
As for `COCc1nn(-c2ccccc2)c(NC(=O)Nc2c(-c3ccccc3)nc3c(C(F)(F)F)cccn23)c1C` [Example 31, 1-(3-(methoxymethyl)-4-methyl-1-phenyl-1H-pyrazol-5-yl)-3-(2-phenyl-8-(trifluoromethyl)imidazo[1,2-a]pyridin-3-yl)urea], the figure is 100 to 1000 nM.
As for `CCOc1nn(-c2ccccc2)c(NC(=O)Nc2c(-c3cccc(F)c3)nc3c(C(F)(F)F)cccn23)c1C` [Example 32, 1-(3-ethoxy-4-methyl-1-phenyl-1H-pyrazol-5-yl)-3-(2-(3-fluorophenyl)-8-(trifluoromethyl)imidazo[1,2-a]pyridin-3-yl)urea], the figure is 100 to 1000 nM; as for `CCOc1nn(-c2ccccc2)c(NC(=O)Nc2c(-c3ccc(F)cc3)nc3c(C(F)(F)F)cccn23)c1C` [Example 33, 1-(3-ethoxy-4-methyl-1-phenyl-1H-pyrazol-5-yl)-3-(2-(4-fluorophenyl)-8-(trifluoromethyl)imidazo[1,2-a]pyridin-3-yl)urea], under 100 nM; as for `Cn1cc(-c2nn(-c3ccccc3)c(NC(=O)Nc3c(-c4ccccc4)nc4c(C(F)(F)F)cccn34)c2Cl)cn1` [Example 34, 1-(4-chloro-1′-methyl-1-phenyl-1H,1′H-[3,4′-bipyrazol]-5-yl)-3-(2-phenyl-8-(trifluoromethyl)imidazo[1,2-a]pyridin-3-yl)urea], under 100 nM.
As for `COC[C@@H](O)COc1nn(-c2ccccc2)c(NC(=O)Nc2c(-c3ccccc3)nc3c(C(F)(F)F)cccn23)c1C` [Example 35, (R)-1-(3-(2-hydroxy-3-methoxypropoxy)-4-methyl-1-phenyl-1H-pyrazol-5-yl)-3-(2-phenyl-8-(trifluoromethyl)imidazo[1,2-a]pyridin-3-yl)urea], the figure is 100 to 1000 nM.
Consider `COC[C@H](O)COc1nn(-c2ccccc2)c(NC(=O)Nc2c(-c3ccccc3)nc3c(C(F)(F)F)cccn23)c1C` [Example 36, (S)-1-(3-(2-hydroxy-3-methoxypropoxy)-4-methyl-1-phenyl-1H-pyrazol-5-yl)-3-(2-phenyl-8-(trifluoromethyl)imidazo[1,2-a]pyridin-3-yl)urea], for which the IC50 is under 100 nM.
Consider `O=C(Nc1c2c(nn1-c1ccccc1)CCC2)Nc1c2ccccc2nn1-c1ccccc1` [Example 37, 1-(2-phenyl-2,4,5,6-tetrahydrocyclopenta[c]pyrazol-3-yl)-3-(2-phenyl-2H-indazol-3-yl)urea], for which the IC50 was in the range of 100 to 1000 nM.
As for `O=C(Nc1c(-c2ccccc2)nn2ccccc12)Nc1c2c(nn1-c1ccccc1)CCC2` [Example 38, 1-(2-phenyl-2,4,5,6-tetrahydrocyclopenta[c]pyrazol-3-yl)-3-(2-phenylpyrazolopyridin-3-yl)urea], the figure is under 100 nM.
As for `CCOc1nn(-c2ccccc2)c(NC(=O)Nc2c(-c3ccccc3)nn3ccccc23)c1C` [Example 39, 1-(3-ethoxy-4-methyl-1-phenyl-1H-pyrazol-5-yl)-3-(2-phenylpyrazolo[1,5-a]pyridin-3-yl)urea], the figure is 100 to 1000 nM.
